Here are results for 59 compounds from the METLIN SMRT retention time set (Domingo-Almenara et al. 2019).

Molecules are shown by their SMILES.

This data set can be described thus: gradient 5% acetonitrile 3 min, to 50% in 2 min, to 85% in 15 min, held 3 min, 100 µL/min. The settings on record: column: Zorbax Extend-C18 2.1 x 50 mm; eluents: water / acetonitrile, 0.1% formic acid. A digest of the protocol: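 Using water and acetonitrile that each contained 0.1% formic acid, mixtures of ~100 pure standards were separated at 100 μL/min on a Zorbax Extend-C18 column (2.1 × 50 mm, 1.8 μm). The HPLC fed a quadrupole time-of-flight mass spectrometer working in positive and negative ionization mode, with dead and dwell volumes of 40 μL and 900 μL. Data were acquired over 3 months. Retention time was read from computationally picked adduct peaks after manual inspection of each.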
`CC(CCc1ccccc1)NC(=O)CCc1c(-c2ccc(F)cc2)nc2ccccn12` (centres undefined) came in with an RP-LC retention time of 727 s.
Compound `Cc1ccc(C(=O)N2CC=C(C(=O)NC3CC3)CC2)cc1C` registered an RP-LC retention time of 797 s.
In the case of `CCc1noc(C2(NC(=O)c3cc(-c4ccccc4)n[nH]3)CCCCC2)n1` it was 906 s; in that of `CC(C)Oc1ccc(CNC(=O)c2cc(-c3ccncc3)cn2C)cc1`, 640 s.
In the case of `Cc1ccc(-c2nc(-c3ccc(-c4noc(CNC(=O)c5ccco5)n4)cc3)cs2)s1` it was 1130 s; in that of `Cc1cc(N2CCOCC2)n2nc(CN3CCN(c4ccccc4C)CC3)nc2n1`, 636 s.
In the case of `Cc1ccccc1-c1nc2cnccn2c1NCCC(=O)NC(C)C` it was 605 s.
Compound `CCCNC(=O)C1CCN(c2ccc(SCC(=O)Nc3ccc(C(=O)OC)cc3)nn2)CC1` gave an RP-LC retention time of 638 s.
Then `O=C(NCCc1ccccc1)C1CCCN(C(=O)c2cccc(C(F)(F)F)c2)C1` (centres undefined), with 903 s.
Then `CCn1cc(C(=O)N2CCC3(CCC3O)CC2)cn1` (centres undefined), with 598 s; and `O=C(Cc1cn(Cc2ccc(Cl)cc2)c2ccccc12)NC1CC1`, with 884 s.
Compound `CNC(=O)c1ccc2c(c1)CCCN2C(=O)c1cccc(Cl)c1` returned an RP-LC retention time of 746 s.
Then `CC(C)n1cnc2cc(CNC(=O)Cc3cccc(C(F)(F)F)c3)ccc21`, with 680 s; and `CCS(=O)(=O)N1CC(=O)N(c2ccc(Cl)cc2C)C(C)(C(=O)NCc2ccc(F)cc2)C1` (centres undefined), with 882 s.
Then `O=C(c1cn2cc(Cl)ccc2n1)N1CCN(c2ccc(F)cc2)CC1`, with 876 s; and `COC(=O)C1=CN(CC(=O)NCc2ccc(Cl)cc2)S(=O)(=O)N=C1C`, with 850 s.
Then `O=C(NC1CCc2ccccc21)C1CCCN(c2ncnc3c2oc2ccccc23)C1` (centres undefined), with 816 s; and `CCC(C)NC(=O)CCn1c(=O)c2ccccc2n2c(=O)n(Cc3ccccc3)nc12` (centres undefined), with 856 s; and `Cn1ccc2c(cc(C(=O)NCc3ccc(C(F)(F)F)cc3)n2C)c1=O`, with 754 s.
Take `CCOc1ccc2ncc(S(=O)(=O)c3ccc(Cl)cc3)c(N3CCN(C)CC3)c2c1`: the RP-LC retention time is 680 s.
Then `CN1C2CCCC1CC(NC(=O)c1nn(C)c3ccccc13)C2` (centres undefined), with 640 s; and `COc1ccc(CC(=O)N2C[C@@H]3C[C@H](NC(=O)c4ccccc4)[C@H]2C3)cc1`, with 725 s.
Then `CN(CC#N)C(=O)Cn1c(=O)c2cccn2c2ccccc21`, with 705 s; and `CCOc1ccc(-c2csc3c(=O)n(Cc4ccncc4)cnc23)cc1OCC`, with 693 s.
Then `Cc1ncoc1C(=O)N1CCC(N2CC(OCC3CC3)C23CCOCC3)CC1` (centres undefined), with 587 s.
On to `COc1ccc(C(O)Cn2ccn3nc(-c4ccc(C)c(C)c4)cc3c2=O)cc1` (centres undefined), for which the RP-LC retention time is 947 s.
Then `O=S(=O)(c1cccn2c(SCc3cccc(F)c3)nnc12)N1CCc2ccccc2C1`, with 959 s; and `COC(=O)c1cc(OCC(=O)Nc2ccccc2F)c2cc(F)ccc2n1`, with 857 s; and `COc1cccc(NC(=O)CC(=O)Nc2ccc3nc4n(c(=O)c3c2)CCCCC4)c1`, with 1210 s.
In the case of `CCCOC(=O)c1cnc2nc(C)ccc2c1NCc1ccc2c(c1)OCO2` it was 734 s.
In the case of `CC(C)c1ccc(N2C(=O)CN(S(C)(=O)=O)CC2(C)C(=O)NCc2ccccc2)cc1` (centres undefined) it was 860 s; in that of `Cc1nn(-c2nc(-c3ccc(Cl)cc3)cs2)c(C)c1CC(=O)N1CCCC1`, 1120 s.
Compound `CCOc1cccc2cc(C(=O)Nc3nc(-c4ccccc4)cs3)c(=N)oc12` came in with an RP-LC retention time of 987 s.
Take `Cc1ccc(-c2nnc(Cc3nc(-c4ccc5c(c4)OCO5)no3)o2)cc1C`: the RP-LC retention time turned out to be 1070 s.
Then `Cc1cc(Cl)ccc1S(=O)(=O)N1CCCC1c1nncn1-c1ccccc1` (centres undefined), with 845 s.
Then `CCCNc1cc(N2CCC(CCC(=O)NC(CC)CC)CC2)ncn1`, with 656 s.
In turn, `COc1ccccc1NC1=NS(=O)(=O)c2ccccc21` gave an RP-LC retention time of 769 s.
Then `CCc1ccc(S(=O)(=O)Nc2ccc3c(c2)nc(-c2ccc(C(=O)NC)cc2)n3C)cc1`, with 674 s; and `Cc1cc(-c2nnc(C3CCC3)o2)c(C)n1CC(=O)NCc1ccc(C(F)(F)F)cc1`, with 941 s.
With `Cc1noc(C)c1S(=O)(=O)N1CC(c2nc(CCOCc3ccccc3)no2)C1`, the RP-LC retention time was found to be 979 s.
In the case of `O=C(COc1ccc(Cl)cc1)N1CCN(c2cc(-c3cccs3)[nH]n2)CC1` it was 864 s.
Then `CCn1cc(-c2ccccc2)cc1C(=O)NCCN1CCCC1`, with 670 s; and `CC(C)CCNC(=O)C1CCN(c2nc3ccc(-c4cncnc4)nc3s2)CC1`, with 824 s.
Then `CCC(=O)N1CCN(c2nc3c(s2)CC(C(=O)NCC(C)C)CC3)CC1` (centres undefined), with 534 s.
With `COc1ccc(-c2cc3nn(CC(=O)N4CCCC(C)C4)c(=O)n3c(C)n2)cc1` (centres undefined), the RP-LC retention time came to 902 s.
In the case of `COc1ccc(NC(=O)c2cnc(N3CCN(C(C)C)CC3)nc2N)cc1` it was 593 s; in that of `CC(C)CNC(=O)c1cn(-c2cc(-c3nc(C(C)C)no3)ccn2)cn1`, 920 s.
Then `COc1ccc(OC)c(-c2csc(-c3nnn(-c4ccc(F)cc4)c3N)n2)c1`, with 1090 s; and `CCCCNC(=O)C1CCCN(C(=O)c2[nH]c(C)cc2C)C1` (centres undefined), with 691 s.
For the compound `Cc1cccc(-c2noc(C3CCCN3C(=O)NCC3CCCO3)n2)c1` (centres undefined), the RP-LC retention time was 818 s.
Then `CCCn1cc(C2=CCN(S(=O)(=O)c3cc(OC)ccc3OC)CC2)c2cccnc21`, with 728 s; and `COCCn1cc2c3c(cccc31)CN(C(=O)Nc1cccc(Cl)c1C)CC2`, with 1070 s.
Compound `CCCC(=O)N1CC(=O)Nc2ccc(Br)cc2C1c1ccccc1` (centres undefined) yielded an RP-LC retention time of 892 s.
Then `Cc1cc(N(C)C)n2nc(-c3ccc(C(C)(C)C)cc3)nc2n1`, with 927 s.
In turn, `CC1(C)C(=O)N(CCN2CCC(C(=O)c3ccc(F)cc3)CC2)c2ccccc21` came in with an RP-LC retention time of 755 s.
In the case of `COc1cc(OC)c(NC(=O)COc2nc(C)nc3ccccc23)cc1Cl` it was 771 s; in that of `CCCN1CCN(CCCNc2nc(-c3ccc(Cl)cc3)nc3ccccc23)CC1`, 584 s.
In the case of `Cc1sc(-c2nc(C(C)C)cs2)cc1S(=O)(=O)N1CCCCC1`, the RP-LC retention time amounted to 1310 s.
In the case of `COCc1nnc(NC(=O)c2ccccc2OCc2nc(-c3ccc(C)cc3)no2)s1` it was 1060 s.
